Laboratory results from US20100081825A1, “1-NAPHTHYL ALKYLPIPERIDINE DERIVATIVE” (Taisho Pharmaceutical Co Ltd, priority 2006, published 2010).
Structures can show the parent of a compound that is named as a salt.

Target: T1, MCH1R (Homo sapiens, UniProt Q99705)
T1 construct: IC50; other: cells stably expressing non-endogenous active MCH1R; 50 nM MCH; Fluo-4 calcium, FDSS6000; list of compounds i
Assay: MCH1R calcium evaluation test (FDSS assay, inhibition of MCH-induced intracellular calcium increase)
Type: cell-based
Settings: cells stably expressing non-endogenous active MCH1R; 50 nM MCH; Fluo-4 calcium, FDSS6000
From the text: MCH1R Calcium Evaluation Test
An FDSS assay can measure the intracellular calcium concentration and can evaluate the Gq-coupled receptor activity using the calcium concentration as an index. For example, the assay can determine whether an analyte is an antagonist, an inverse agonist or an agonist for a Gq-coupled receptor. The FDSS6000™ system (Hamamatsu Photonics K.K.) is designed to perform evaluation based on functionality such as measurement of intracellular calcium for high-throughput screening. Intracellular calcium release by activation of a Gq-coupled receptor can be fluorometrically measured by incorporating a calcium indicator (such as Fluo4) into cells. On the other hand, the assay cannot measure the activation of Gi- and Go-coupled receptors, because the activation is not associated with calcium signaling pathways.
Intracellular fluorescence can be rapidly and successively measured in a 96-well microplate or a 384-well microplate using a fluorometric imaging plate reader system. FDSS6000™ can simultaneously measure fluorescence in all wells sensitively, accurately and by seconds. This system is ideal for functional analysis in cells such as monitoring of an intracellular calcium flow generated within several seconds after activation of a Gq-coupled receptor.
On the day before the test, cells stably expressing non-endogenous active MCH1R were seeded into a 96-well microplate at 3×10^4 cells per well. 100 μL per well of a medium (Dulbecco's modified Eagle medium containing 10% fetal bovine serum, 2 mM glutamine, 1 mM sodium pyruvate and 0.5 mg/mL G418, pH 7.4) was used for culture. On the day of the test, the medium was removed and an assay buffer {Hank's balanced salt solution containing 20 mM HEPES, 0.5 mM probenecid, 0.05 mg/mL amaranth and 0.2% bovine serum albumin (BSA), pH 7.4} containing 2 μM Fluo-4-AM and 0.04% Pluronic F127 was added at 100 μL per well, followed by incubation in a 5% CO2 incubator at 37° C. for one hour. Thereafter, the buffer was removed and an assay buffer containing each concentration of the test compound was newly added at 150 μL per well, followed by incubation in a 5% CO2 incubator at 37° C. for 30 minutes. An assay buffer containing each concentration of MCH was added at 50 μL per well, and transient changes in the intracellular calcium concentration induced by MCH were monitored using FDSS6000™ at Ex. 488 nm and Em. 530 nm for 180 seconds. In testing the antagonistic activity of the analyte, MCH was added to a final concentration of 50 nM. An inhibition curve was prepared with various concentrations of the analyte, and the concentration of the analyte inhibiting 50% of the increase in intracellular calcium when 50 nM MCH was added (IC50 value) was calculated using data analysis software Origin Ver. 6.

Row | SMILES | IC50
1 | COc1cccc(C(=O)NC2CCN(Cc3ccc4ccc(CNCCN(C)C)cc4c3)CC2)c1 [Example 49, N-(1-{[7-({[2-(Dimethylamino)ethyl]amino}methyl)-2-naphthyl]methyl}piperidin-4-yl)-3-methoxybenzamide] | 7.08 nM
2 | CNCCNCc1ccc2ccc(CN3CCC(NC(=O)c4cccc(OC)c4)CC3)cc2c1 [Example 67, 3-Methoxy-N-(1-{[7-({[2-(methylamino)ethyl]amino}methyl)-2-naphthyl]methyl}piperidin-4-yl)benzamide trihydrochloride] | 6.51 nM
3 | COCc1ccc2ccc(CN3CCC(NC(=O)c4cc(OC)cc(OC)c4)CC3)cc2c1 [Example 10, 3,5-Dimethoxy-N-(1-{[7-(methoxymethyl)-2-naphthyl]methyl}piperidin-4-yl)benzamide] | 4.99 nM
4 | COc1cccc(C(=O)NC2CCN(Cc3ccc4ccc(CNCCN)cc4c3)CC2)c1 [Example 64, N-{1-[(7-{[(2-Aminoethyl)amino]methyl}-2-naphthyl)methyl]piperidin-4-yl}-3-methoxybenzamide trihydrochloride] | 7.14 nM
5 | COCCOCc1ccc2ccc(CN3CCC(NC(=O)c4cccc(C(C)=O)c4)CC3)cc2c1 [Example 90, 3-Acetyl-N-[1-({7-[(2-methoxyethoxy)methyl]-2-naphthyl}methyl)piperidin-4-yl]benzamide] | 7.69 nM
6 | COc1cccc(C(=O)NC2CCN(Cc3ccc4ccc(CCO)cc4c3)CC2)c1 [Example 120, N-(1-{[7-(2-hydroxyethyl)-2-naphthyl]methyl}piperidin-4-yl)-3-methoxybenzamide] | 7.41 nM
7 | CCOCc1ccc2ccc(CN3CCC(NC(=O)c4ccc(F)c(Cl)c4)CC3)cc2c1 [Example 6, 3-chloro-N-(1-{[7-(ethoxymethyl)-2-naphthyl]methyl}piperidin-4-yl)-4-fluorobenzamide] | 3.54 nM
8 | COCc1ccc2ccc(CN3CCC(NC(=O)c4cccc(OC)c4)CC3)cc2c1 [Example 13, 3-Methoxy-N-(1-{[7-(methoxymethyl)-2-naphthyl]methyl}piperidin-4-yl)benzamide] | 10.4 nM

Second part, the compound after the results:

Row | IC50 | SMILES
9 | 4.89 nM | COc1cccc(C(=O)NC2CCN(Cc3ccc4ccc(COCCN(C)C)cc4c3)CC2)c1 [Example 37, N-{1-[(7-{[2-(dimethylamino)ethoxy]methyl}-2-naphthyl)methyl]piperidin-4-yl}-3-methoxybenzamide]
10 | 9.68 nM | COc1cccc(C(=O)NC2CCN(Cc3ccc4ccc(CNCCN5CCCC5)cc4c3)CC2)c1 [Example 48, 3-Methoxy-N-{1-[(7-{[(2-pyrrolidin-1-ylethyl)amino]methyl}-2-naphthyl)methyl]piperidin-4-yl}benzamide]
11 | 6.11 nM | COc1cccc(C(=O)NC2CCN(Cc3ccc4ccc(COCCN5CCCC5)cc4c3)CC2)c1 [Example 36, 3-Methoxy-N-[1-({7-[(2-pyrrolidin-1-ylethoxy)methyl]-2-naphthyl}methyl)piperidin-4-yl]benzamide]
12 | 5.67 nM | COCCOCc1ccc2ccc(CN3CCC(NC(=O)c4cccc(OC)c4)CC3)cc2c1 [Example 26, 3-Methoxy-N-[1-({7-[(2-methoxyethoxy)methyl]-2-naphthyl}methyl)piperidin-4-yl]benzamide]
